Data reported in patent publication US8952024B2, “Herbicidal pyrimidone derivatives” (E I du Pont de Nemours and Company, priority 2009, dated 2015).
Where two headings read alike, the source gives them in different places.

Assays:
Type in all cases: in vivo
[1] = system: morningglory (Ipomoea spp.); assay: Test A pre-/postemergence plant response; conditions: Ipomoea, 240 h, read-out: Plant response rating, Morningglory; for pest or weed control at 125 g/ha: 125 g ai/ha
Method in brief: (§1)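 Visually rated 0–100 injury (100 = complete control) versus untreated plants, ~10 days in greenhouse. Application pre- (soil spray, loam/sand) and postemergence (2–10 cm, 1–2 leaf stage), same timepoint.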

[2] = system: barnyardgrass (Echinochloa crus-galli); assay: Test A pre-/postemergence plant response; conditions: Echinochloa crus-galli, 240 h, read-out: Plant response rating, Barnyardgrass; for pest or weed control at 125 g/ha: 125 g ai/ha; for pest or weed control at 500 g/ha: 500 g ai/ha, approx. ten days
Method in brief: as §1

[3] = system: wheat (Triticum aestivum); assay: Test A pre-/postemergence plant response; conditions: Triticum aestivum, 240 h, read-out: Plant response rating, Wheat; for plant injury at 125 g/ha: 125 g ai/ha; for plant injury at 500 g/ha: 500 g ai/ha, approx. ten days
Method in brief: as §1

[4] = system: large crabgrass (Digitaria sanguinalis); assay: Test A pre-/postemergence plant response; conditions: Digitaria sanguinalis, 240 h, read-out: Plant response rating, Crabgrass, Large; for pest or weed control at 125 g/ha: 125 g ai/ha; for pest or weed control at 500 g/ha: 500 g ai/ha, approx. ten days
Method in brief: as §1

corn (Zea mays) = assay: Test A pre-/postemergence plant response; conditions: Zea mays, 240 h; for Corn plant response rating (crop injury, 0 = no effect, 100 = complete kill) at 125 g/ha: 125 g ai/ha; for Corn plant response rating (crop injury, 0 = no effect, 100 = complete kill) at 500 g/ha: 500 g ai/ha, approx. ten days
Method in brief: as §1

[5] = system: velvetleaf (Abutilon theophrasti); assay: Test A pre-/postemergence plant response; conditions: Abutilon theophrasti, 240 h, read-out: Plant response rating, Velvetleaf; for pest or weed control at 125 g/ha: 125 g ai/ha; for pest or weed control at 500 g/ha: 500 g ai/ha, approx. ten days
Method in brief: as §1

[6] = system: giant foxtail (Setaria faberii); assay: Test A pre-/postemergence plant response; conditions: Setaria faberi, 240 h, read-out: Plant response rating, Foxtail, Giant; for pest or weed control at 125 g/ha: 125 g ai/ha; for pest or weed control at 500 g/ha: 500 g ai/ha, approx. ten days
Method in brief: as §1

[7] = system: pigweed (Amaranthus retroflexus); assay: Test A pre-/postemergence plant response; conditions: Amaranthus retroflexus, 240 h, read-out: Plant response rating, Pigweed; for pest or weed control at 125 g/ha: 125 g ai/ha; for pest or weed control at 500 g/ha: 500 g ai/ha, approx. ten days
Method in brief: as §1

[8] = system: umbrella sedge (Cyperus difformis); assay: Test B flooded paddy test
Method in brief: (§2)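 Ratings are visual, 0–100 (100 = complete control), taken versus untreated controls 13 to 15 days after treatment in the greenhouse. Compound went straight into paddy water held 3 cm above soil, applied to 2-leaf-stage plants of four species.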

[9] = system: barnyardgrass (Echinochloa crus-galli); assay: Test B flooded paddy test
Method in brief: as §2

rice (Oryza sativa) = assay: Test B flooded paddy test
Method in brief: as §2

[10] = system: ducksalad (Heteranthera limosa); assay: Test B flooded paddy test
Method in brief: as §2

[11] = post-emergence, Postemergence, 0 to 100 scale where 0 is no effect and 100 is complete control
[12] = pre-emergence, Preemergence, 0 to 100 scale, 0 = no effect, 100 = complete control
[13] = post-emergence, Postemergence, 0 to 100 scale, 0 = no effect, 100 = complete control
[14] = pre-emergence, Preemergence, visual injury, 0 to 100 scale (0 no effect, 100 complete control)
[15] = Flood, 31 g ai/ha, scale 0 to 100 (0 no effect, 100 complete control)

O=C1CCCC(O)=C1C(=O)c1cnc(-c2ccccc2)n(C2CCCCC2)c1=O [Compound 128, 3-cyclohexyl-5-[(2-hydroxy-6-oxo-1-cyclohexen-1-yl)carbonyl]-2-phenyl-4(3H)-pyrimidinone]
pest or weed control at 125 g/ha [1, 11]: 100% | pest or weed control at 500 g/ha ([1]; post-emergence, Postemergence, 500 g ai/ha, 0 to 100 scale, 0 = no effect, 100 = complete control, approx. ten days): 100% | pest or weed control at 125 g/ha [1, 12]: 80% | pest or weed control at 125 g/ha [2, 11]: 100% | pest or weed control at 500 g/ha [2, 13]: 100% | pest or weed control at 125 g/ha [2, 12]: 10% | pest or weed control at 500 g/ha [2, 14]: 100% | plant injury at 125 g/ha [3, 11]: 0% | plant injury at 500 g/ha [3, 13]: 20% | plant injury at 125 g/ha [3, 12]: 0% | plant injury at 500 g/ha [3, 14]: 30% | pest or weed control at 125 g/ha [4, 11]: 90% | pest or weed control at 500 g/ha [4, 13]: 90% | pest or weed control at 125 g/ha [4, 12]: 80% | pest or weed control at 500 g/ha [4, 14]: 100% | Corn plant response rating (crop injury, 0 = no effect, 100 = complete kill) at 125 g/ha (corn (Zea mays); [11]): 20% | Corn plant response rating (crop injury, 0 = no effect, 100 = complete kill) at 500 g/ha (corn (Zea mays); [13]): 60% | Corn plant response rating (crop injury, 0 = no effect, 100 = complete kill) at 125 g/ha (corn (Zea mays); [12]): 0% | Corn plant response rating (crop injury, 0 = no effect, 100 = complete kill) at 500 g/ha (corn (Zea mays); [14]): 0% | pest or weed control at 125 g/ha [5, 11]: 100% | pest or weed control at 500 g/ha [5, 13]: 100% | pest or weed control at 125 g/ha [5, 12]: 80% | pest or weed control at 500 g/ha [5, 14]: 100% | pest or weed control at 125 g/ha [6, 11]: 90% | pest or weed control at 500 g/ha [6, 13]: 90% | pest or weed control at 125 g/ha [6, 12]: 60% | pest or weed control at 500 g/ha [6, 14]: 90% | pest or weed control at 125 g/ha [7, 11]: 100% | pest or weed control at 500 g/ha [7, 13]: 100% | pest or weed control at 125 g/ha [7, 12]: 80% | pest or weed control at 500 g/ha [7, 14]: 100% | pest or weed control at 250 g/ha ([8]; Cyperus difformis, 360 h, 250 g ai/ha, flooded paddy test, visual rating on 0 to 100 scale (0 no effect, 100 complete control) after 13 to 15 days, read-out: Plant response rating, Flood, Sedge, Umbrella): 75% | pest or weed control at 62 g/ha ([8]; Cyperus difformis, 360 h, Flood (flooded paddy test), 62 g ai/ha, scale of 0 to 100 where 0 is no effect and 100 is complete control, 13 to 15 days, read-out: Plant response rating, Sedge, Umbrella): 30% | pest or weed control at 125 g/ha ([8]; Cyperus difformis, 360 h, Flood (flooded paddy test), 125 g ai/ha, scale 0 to 100, 0 is no effect, 100 is complete control, 13 to 15 days, read-out: Plant response rating, Sedge, Umbrella): 60% | Sedge, Umbrella plant response rating [8, 15]: 0 | pest or weed control at 250 g/ha ([9]; Echinochloa crus-galli, 360 h, 250 g ai/ha, flooded paddy test, visual rating on 0 to 100 scale (0 no effect, 100 complete control) after 13 to 15 days, read-out: Plant response rating, Flood, Barnyardgrass): 40% | pest or weed control at 62 g/ha ([9]; Echinochloa crus-galli, 360 h, Flood (flooded paddy test), 62 g ai/ha, scale of 0 to 100 where 0 is no effect and 100 is complete control, 13 to 15 days, read-out: Plant response rating, Barnyardgrass): 10% | pest or weed control at 125 g/ha ([9]; Echinochloa crus-galli, 360 h, Flood (flooded paddy test), 125 g ai/ha, scale 0 to 100, 0 is no effect, 100 is complete control, 13 to 15 days, read-out: Plant response rating, Barnyardgrass): 15% | Barnyardgrass plant response rating [9, 15]: 0 | Rice plant response rating (rice (Oryza sativa); [15]): 0 | plant injury at 250 g/ha (rice (Oryza sativa); Oryza sativa, 250 g ai/ha, flooded paddy test, visual rating on 0 to 100 scale (0 no effect, 100 complete control) after 13 to 15 days, read-out: Plant response rating, Flood, Rice): 35% | plant injury at 62 g/ha (rice (Oryza sativa); Oryza sativa, Flood (flooded paddy test), 62 g ai/ha, scale of 0 to 100 where 0 is no effect and 100 is complete control, 13 to 15 days, read-out: Plant response rating, Rice): 0% | plant injury at 125 g/ha (rice (Oryza sativa); Oryza sativa, Flood (flooded paddy test), 125 g ai/ha, scale 0 to 100, 0 is no effect, 100 is complete control, 13 to 15 days, read-out: Plant response rating, Rice): 10% | Ducksalad plant response rating [10, 15]: 90 | pest or weed control at 250 g/ha ([10]; Heteranthera limosa, 360 h, 250 g ai/ha, flooded paddy test, visual rating on 0 to 100 scale (0 no effect, 100 complete control) after 13 to 15 days, read-out: Plant response rating, Flood, Ducksalad): 100% | pest or weed control at 62 g/ha ([10]; Heteranthera limosa, 360 h, Flood (flooded paddy test), 62 g ai/ha, scale of 0 to 100 where 0 is no effect and 100 is complete control, 13 to 15 days, read-out: Plant response rating, Ducksalad): 95% | pest or weed control at 125 g/ha ([10]; Heteranthera limosa, 360 h, Flood (flooded paddy test), 125 g ai/ha, scale 0 to 100, 0 is no effect, 100 is complete control, 13 to 15 days, read-out: Plant response rating, Ducksalad): 95%
